Data on one molecule can be found in patent US4182707A, “Somatostatin analogues” (American Home Products Corporation, priority 1978, dated 1980).

The subject of one assay is growth hormone. Description: Arginine-stimulated growth hormone secretion in Nembutal-anesthetized rats. Particulars: 100 micrograms per kilogram subcutaneous; arginine into the heart 10 min later, blood 5 min after arginine; p<0.01; control 122±26 ng/ml. The format is in vivo, Albino male rats. Here is the method:
The activity of the product of the preceding preparatory example, (des-Ala^1 -Gly^2, D-Lys^4, Trp^5, D-Trp^8)Somatostatin was determined by the following procedure:
Albino male rats were administered Nembutal intraperitoneally at a dose of 50 milligrams per kilogram. Fifteen minutes later a subcutaneous injection of the test compound or physiological saline was administered. Ten minutes later 0.5 millileters of arginine (300 milligrams per milliliter, pH 7.2) is injected into the heart. Five minutes after receipt of the arginine the rats are decapitated and blood is collected into trasylol-EDTA. […] Thus, (des-Ala^1 -Gly^2, D-Lys^4, Trp^5, D-Trp^8)Somatostatin, representative of the corresponding D-Arg^4,D-His^4, D-Orn^4, Phe^5, Tyr^5, Leu^5 and Met^5 analogues, their (Ala^1 -Gly^2)somatostatin analogues and the corresponding L-Trp^8 and D-Cys^14 analogues, is an effective agent for selectively reducing secretion of growth hormone at relatively high doses.

For another assay, the system named is total acid output. Description: Four hour pylorus ligated rat test (Shay et al.), anti-secretory activity. It is filed as in vivo. Particulars: dosage between 0.25 and 2.0 mg/kg, p<0.05. The source says:
Therefore, the product of Example 2 is also useful as an anti-secretory agent for the treatment of peptic ulcer disease.

Positions of bridges follow the written chain, without caps; N, C: chain ends. Non-standard residues stand in square brackets, D forms with d. Residues, ends and D or L forms follow the SMILES beside them.

For the molecule `C[C@@H](O)[C@@H]1NC(=O)[C@H](Cc2ccccc2)NC(=O)[C@H]([C@@H](C)O)NC(=O)[C@H](CCCCN)NC(=O)[C@@H](Cc2c[nH]c3ccccc23)NC(=O)[C@H](Cc2ccccc2)NC(=O)[C@H](Cc2ccccc2)NC(=O)[C@H](Cc2c[nH]c3ccccc23)NC(=O)[C@@H](CCCCN)NC(=O)[C@@H](N)CSSC[C@@H](C(=O)O)NC(=O)[C@H](CO)NC1=O` [Example 2, L-cysteinyl-D-lysyl-L-tryptophyl-L-phenylalanyl-L-phenylalanyl-D-tryptophyl-L-lysyl-L-threonyl-L-phenylalanyl-L-threonyl-L-seryl-L-cysteine cyclic (1-12) disulfide] (H-C[dK]WFF[dW]KTFTSC-OH; disulfide 1-12), in the assay with growth hormone, the “growth hormone in blood” value amounted to 24 ± 7 ng/mL. For the same molecule, the “inhibition of total acid output” value with total acid output is given as about 50%.
